Laboratory results from ChEMBL document CHEMBL4024706 (Eur J Med Chem, 2017).

Tests used:
Pfeiffer = test: Growth inhibition of human Pfeiffer cells; assay type: functional; conditions: Homo sapiens, Pfeiffer
[1] = system: Tyrosine-protein kinase ABL1 (Homo sapiens), P00519 [F317I]; test: Inhibition of human phosphorylated ABL1 F317I mutant (S229 to K512 residues) expressed in mammalian expression system assessed as residual activity at 1 uM by Kinomescan method relative to control
[2] = biological target: Dual specificity protein kinase CLK4 (Homo sapiens) (UniProt Q9HAZ1); test: Inhibition of wild-type human partial length CLK4 (R135 to K481 residues) expressed in bacterial expression system assessed as residual activity at 1 uM by Kinomescan method relative to control
[3] = biological target: Casein kinase II subunit alpha' (Homo sapiens) (UniProt P19784); test: Inhibition of wild-type human full length CSNK2A2 (M1 to R350 residues) expressed in mammalian expression system assessed as residual activity at 1 uM by Kinomescan method relative to control
[4] = biological target: Eukaryotic translation initiation factor 2-alpha kinase 1 (Homo sapiens) (UniProt Q9BQI3); test: Inhibition of wild-type human partial length EIF2AK1 (Q147 to E603 residues) expressed in mammalian expression system assessed as residual activity at 1 uM by Kinomescan method relative to control
[5] = system: eIF-2-alpha kinase GCN2 (Homo sapiens), Q9P2K8 [S808G]; test: Inhibition of […] human partial length GCN2 kinase domain 2 (R585 to T1018 residues) S808G mutant expressed in bacterial expression system assessed as residual activity at 1 uM by Kinomescan method relative to control
[6] = system: Mast/stem cell growth factor receptor Kit (Homo sapiens), P10721 [D816V]; test: Inhibition of human partial length KIT D816V mutant (I571 to D952 residues) expressed in bacterial expression system assessed as residual activity at 1 uM by Kinomescan method relative to control
[7] = system: Mast/stem cell growth factor receptor Kit (Homo sapiens), P10721 [V559D,T670I]; test: Inhibition of human partial length KIT V559D/T670I double mutant (Y545 to D952 residues) expressed in bacterial expression system assessed as residual activity at 1 uM by Kinomescan method relative to control
[8] = biological target: Mitogen-activated protein kinase kinase kinase 15 (Homo sapiens) (UniProt Q6ZN16); test: Inhibition of wild-type human partial length MAP3K15 (T625 to L932 residues) expressed in mammalian expression system assessed as residual activity at 1 uM by Kinomescan method relative to control
[9] = biological target: Mitogen-activated protein kinase kinase kinase kinase 2 (Homo sapiens) (UniProt Q12851); test: Inhibition of wild-type human partial length MAP4K2 (M1 to G318 residues) expressed in mammalian expression system assessed as residual activity at 1 uM by Kinomescan method relative to control
[10] = biological target: MAP kinase-activated protein kinase 2 (Homo sapiens) (UniProt P49137); test: Inhibition of wild-type human partial length MAPKAPK2 (V48 to D345 residues) expressed in bacterial expression system assessed as residual activity at 1 uM by Kinomescan method relative to control
[11] = biological target: MAP/microtubule affinity-regulating kinase 4 (Homo sapiens) (UniProt Q96L34); test: Inhibition of wild-type human partial length MARK4 (K29 to G340 residues) expressed in bacterial expression system assessed as residual activity at 1 uM by Kinomescan method relative to control
[12] = biological target: Mitogen-activated protein kinase kinase kinase 9 (Homo sapiens) (UniProt P80192); test: Inhibition of wild-type human partial length MLK1 (V88 to W426 residues) expressed in bacterial expression system assessed as residual activity at 1 uM by Kinomescan method relative to control
[13] = biological target: Serine/threonine-protein kinase 24 (Homo sapiens) (UniProt Q9Y6E0); test: Inhibition of wild-type human partial length MST3 (A30 to S311 residues) expressed in bacterial expression system assessed as residual activity at 1 uM by Kinomescan method relative to control
[14] = biological target: Mitogen-activated protein kinase 13 (Homo sapiens) (UniProt O15264); test: Inhibition of wild-type human full length p38-delta (M1 to L365 residues) expressed in bacterial expression system assessed as residual activity at 1 uM by Kinomescan method relative to control
[15] = biological target: Protein kinase C iota type (Homo sapiens) (UniProt P41743); test: Inhibition of wild-type human partial length PRKCI (H215 to V587 residues) expressed in mammalian expression system assessed as residual activity at 1 uM by Kinomescan method relative to control
[16] = biological target: Proto-oncogene tyrosine-protein kinase receptor Ret (Homo sapiens) (UniProt P07949); test: Inhibition of wild-type human partial length RET (E713 to D1014 residues) expressed in bacterial expression system assessed as residual activity at 1 uM by Kinomescan method relative to control
[17] = system: Proto-oncogene tyrosine-protein kinase receptor Ret (Homo sapiens), P07949 [M918T]; test: Inhibition of human partial length RET M918T mutant (E713 to D1014 residues) expressed in bacterial expression system assessed as residual activity at 1 uM by Kinomescan method relative to control
[18] = biological target: Receptor-interacting serine/threonine-protein kinase 1 (Homo sapiens) (UniProt Q13546); test: Inhibition of wild-type human partial length RIPK1 (M1 to K305 residues) expressed in bacterial expression system assessed as residual activity at 1 uM by Kinomescan method relative to control
[19] = biological target: Dual serine/threonine and tyrosine protein kinase (Homo sapiens) (UniProt Q6XUX3); test: Inhibition of wild-type human full length RIPK5 (M1 to T929 residues) expressed in mammalian expression system assessed as residual activity at 1 uM by Kinomescan method relative to control
[20] = biological target: Ribosomal protein S6 kinase alpha-6 (Homo sapiens) (UniProt Q9UK32); test: Inhibition of wild-type human partial length C-terminal RSK4 kinase domain 2 (I401 to Y711 residues) expressed in bacterial expression system assessed as residual activity at 1 uM by Kinomescan method relative to control
[21] = biological target: Serine/threonine-protein kinase SIK1 (Homo sapiens) (UniProt P57059); test: Inhibition of wild-type human partial length SIK (M1 to Y304 residues) expressed in bacterial expression system assessed as residual activity at 1 uM by Kinomescan method relative to control
[22] = biological target: SRSF protein kinase 1 (Homo sapiens) (UniProt Q96SB4); test: Inhibition of wild-type human full length SRPK1 (M1 to S655 residues) expressed in bacterial expression system assessed as residual activity at 1 uM by Kinomescan method relative to control
[23] = biological target: Serine/threonine-protein kinase TAO3 (Homo sapiens) (UniProt Q9H2K8); test: Inhibition of wild-type human partial length TAOK3 (M1 to T316 residues) expressed in mammalian expression system assessed as residual activity at 1 uM by Kinomescan method relative to control
[24] = biological target: NT-3 growth factor receptor (Homo sapiens) (UniProt Q16288); test: Inhibition of wild-type human partial length TRKC (Q531 to G825 residues) expressed in mammalian expression system assessed as residual activity at 1 uM by Kinomescan method relative to control

How did the GI50 (Pfeiffer) turn out when C=CC(=O)Nc1cc(Nc2cc(-c3cccc(NC(=O)c4ccc(C(C)(C)C)cc4)c3C)cn(C)c2=O)ccc1C(=O)N1CCOCC1 was run?
Its GI50 is 4.5 µM.

And the Activity [1]?
Its Activity is 97%.

And the Activity [2]?
The Activity was 90%.

What about the Activity [3] of the same compound?
Its Activity is 100%.

And the Activity [4]?
Its Activity is 84%.

What about the Activity [5] of the same compound?
Its Activity is 100%.

What about the Activity [6] of the same compound?
The Activity was 92%.

What about the Activity [7] of the same compound?
The Activity was 96%.

And the Activity [8]?
Its Activity is 99%.

And the Activity [9]?
The Activity was 94%.

What about the Activity [10] of the same compound?
Its Activity is 88%.

What about the Activity [11] of the same compound?
Its Activity is 91%.

And the Activity [12]?
Its Activity is 99%.

And the Activity [13]?
The Activity was 98%.

What about the Activity [14] of the same compound?
Its Activity is 84%.

And the Activity [15]?
Its Activity is 100%.

What about the Activity [16] of the same compound?
The Activity was 87%.

And the Activity [17]?
Its Activity is 100%.

What about the Activity [18] of the same compound?
The Activity was 100%.

What about the Activity [19] of the same compound?
Its Activity is 90%.

What about the Activity [20] of the same compound?
Its Activity is 89%.

What about the Activity [21] of the same compound?
The Activity was 93%.

And the Activity [22]?
Its Activity is 100%.

What about the Activity [23] of the same compound?
Its Activity is 94%.

What about the Activity [24] of the same compound?
The Activity was 76%.
